In ChEMBL document CHEMBL1201862, “PubChem BioAssay data set” (2004):
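48-hour exposure; five concentrations; linearly interpolated endpoints. Here, GI50 denotes the concentration required for 50% inhibition of growth.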 Calls of active or inactive are those of the source. Rule as the data show it: active = GI50 up to about 1.1 µM and inactive = higher.

Assays:
Test in all cases: NCI anticancer screen, dose series, 48 h
[1] = tested on: LOX IMVI
[2] = tested on: CCRF-CEM
[3] = tested on: A549
[4] = tested on: HCT-116
[5] = tested on: NCI-H23
[6] = tested on: HOP-92
[7] = tested on: SNB-75
[8] = tested on: UACC-62
[9] = tested on: SF-295
[10] = tested on: MOLT-4
[11] = tested on: CAKI-1
[12] = tested on: U-251
[13] = tested on: SK-MEL-5
[14] = tested on: NCI-H460
[15] = tested on: OVCAR-4
[16] = tested on: TK-10
[17] = tested on: IGROV-1

Row | SMILES | GI50 [1] | GI50 [2] | GI50 [3] | GI50 [4] | GI50 [5] | GI50 [6] | GI50 [7] | GI50 [8] | GI50 [9] | GI50 [10] | GI50 [11] | GI50 [12] | GI50 [13] | GI50 [14] | GI50 [15] | GI50 [16] | GI50 [17]
1 | S=P(N1CCCC1)(N1CC1)N1CC1 | > 100 µM (inactive) | 73.1 µM (inactive) | > 100 µM (inactive) | > 100 µM (inactive) | > 100 µM (inactive) | > 10 µM (inactive) | > 100 µM (inactive) | > 100 µM (inactive) | > 100 µM (inactive) | 71.4 µM (inactive) | 49.4 µM (inactive) | > 100 µM (inactive) | > 100 µM (inactive) | 32.4 µM (inactive) | > 100 µM (inactive) | > 100 µM (inactive) | > 100 µM (inactive)
2 | NC1=NN(c2ccccc2)C(=O)C1C(=O)CCC(=O)Nc1cccc(C(F)(F)F)c1 (configuration not stated) | 72.4 µM (inactive) | > 100 µM (inactive) | > 100 µM (inactive) | > 100 µM (inactive) | > 100 µM (inactive) | > 100 µM (inactive) |  | 53 µM (inactive) | > 100 µM (inactive) | > 100 µM (inactive) | > 100 µM (inactive) | > 100 µM (inactive) | > 100 µM (inactive) | > 100 µM (inactive) | > 100 µM (inactive) | > 100 µM (inactive) | > 100 µM (inactive)
3 | C/C(CN1C(=O)c2ccccc2C1=O)=N\NS(=O)(=O)c1ccc(Br)cc1 | > 100 µM (inactive) | > 100 µM (inactive) | > 100 µM (inactive) | > 100 µM (inactive) | > 100 µM (inactive) | 74.8 µM (inactive) | > 100 µM (inactive) | > 100 µM (inactive) | > 100 µM (inactive) | > 100 µM (inactive) | > 100 µM (inactive) | > 100 µM (inactive) | > 100 µM (inactive) | > 100 µM (inactive) | > 100 µM (inactive) | > 100 µM (inactive) | > 100 µM (inactive)
4 | CC1=CC2C(=O)N(c3ccccc3)C(=O)C2CC1n1[nH]c(=O)n(Cc2ccccc2)c1=O (configuration not stated) | > 100 µM (inactive) | > 100 µM (inactive) | > 100 µM (inactive) | > 100 µM (inactive) | > 100 µM (inactive) | > 100 µM (inactive) | > 100 µM (inactive) | > 100 µM (inactive) | > 100 µM (inactive) |  | > 100 µM (inactive) | > 100 µM (inactive) | > 100 µM (inactive) | > 100 µM (inactive) | > 100 µM (inactive) | > 100 µM (inactive) | > 100 µM (inactive)
5 | N#CC(NNC(=O)c1ccccc1O)c1ccc(O)cc1 (configuration not stated) | 5.83 µM (inactive) | 4.93 µM (inactive) | 2.74 µM (inactive) | 3.33 µM (inactive) | 8.05 µM (inactive) | 3.48 µM (inactive) | 1.24 µM (inactive) | 1.95 µM (inactive) | 4.38 µM (inactive) | 4.17 µM (inactive) | 6 µM (inactive) | 3.8 µM (inactive) | 19.4 µM (inactive) | 3.79 µM (inactive) | 13.1 µM (inactive) | 39.5 µM (inactive) | 3.96 µM (inactive)
6 | CC(C)(C)/N=C1/CC(C)(C)c2ccccc2/C(=N\c2ccccc2)S1 | 18.6 µM (inactive) | 26.9 µM (inactive) | 36.4 µM (inactive) | 33.4 µM (inactive) | 27.7 µM (inactive) |  | 32.5 µM (inactive) | 27 µM (inactive) | 32.4 µM (inactive) | 14.8 µM (inactive) | 40.2 µM (inactive) | 30.6 µM (inactive) | 24.6 µM (inactive) | 30.1 µM (inactive) |  | 75.9 µM (inactive) | 48.3 µM (inactive)
7 | O=C(CC(=O)n1nc(-c2ccccc2)c(/N=N/c2ccccc2Cl)c1-c1ccccc1)Nc1ccc(Cl)cc1 | > 44.4 µM (inactive) | > 44.9 µM (inactive) | > 54.1 µM (inactive) | > 41.3 µM (inactive) | > 100 µM (inactive) | > 100 µM (inactive) | > 100 µM (inactive) | > 100 µM (inactive) | > 100 µM (inactive) | > 100 µM (inactive) | > 100 µM (inactive) | > 38.6 µM (inactive) | > 100 µM (inactive) | > 48.1 µM (inactive) | > 100 µM (inactive) | > 96.2 µM (inactive) | > 100 µM (inactive)
8 | Cc1nc2ccccc2nc1NS(=O)(=O)c1ccc(N)cc1 | > 100 µM (inactive) | > 100 µM (inactive) | > 100 µM (inactive) |  | > 100 µM (inactive) | > 100 µM (inactive) | 50.9 µM (inactive) | > 100 µM (inactive) | > 100 µM (inactive) | > 100 µM (inactive) | > 100 µM (inactive) | > 100 µM (inactive) | > 100 µM (inactive) |  | > 100 µM (inactive) | > 100 µM (inactive) | > 100 µM (inactive)
9 | Cc1ccc(C2=C(c3ccccc3)C(Br)(c3ccccc3)C(c3ccccc3)=C2c2ccc(C)cc2)cc1 |  | > 100 µM (inactive) | > 100 µM (inactive) | > 100 µM (inactive) | > 100 µM (inactive) | > 100 µM (inactive) | > 100 µM (inactive) | > 100 µM (inactive) | > 100 µM (inactive) | > 100 µM (inactive) | > 100 µM (inactive) | > 100 µM (inactive) | > 100 µM (inactive) | > 100 µM (inactive) | > 100 µM (inactive) | > 100 µM (inactive) | > 100 µM (inactive)
10 | N#CCCC(C#N)(C#N)CCC#N | > 100 µM (inactive) | > 10 µM (inactive) | > 100 µM (inactive) | > 100 µM (inactive) | > 100 µM (inactive) |  |  | > 100 µM (inactive) | > 100 µM (inactive) | > 100 µM (inactive) |  | > 100 µM (inactive) | > 100 µM (inactive) | > 100 µM (inactive) |  | > 100 µM (inactive) | > 100 µM (inactive)
11 | Nc1nc(O)c([N+](=O)[O-])c(NCCOCP(=O)(O)O)n1 | > 100 µM (inactive) | > 100 µM (inactive) | > 100 µM (inactive) | > 100 µM (inactive) | > 100 µM (inactive) | > 100 µM (inactive) | > 100 µM (inactive) | > 100 µM (inactive) | > 100 µM (inactive) | > 100 µM (inactive) |  | > 100 µM (inactive) |  | > 100 µM (inactive) |  | > 100 µM (inactive) | > 100 µM (inactive)
12 | CC(C)C(Sc1nc(-c2ccccc2)c(-c2ccccc2)[nH]1)C(=O)N/N=C/c1ccc(Cl)cc1 (configuration not stated) | 15.5 µM (inactive) | 21.7 µM (inactive) | 30.8 µM (inactive) | 15.8 µM (inactive) | 22.3 µM (inactive) | 21 µM (inactive) | 29.3 µM (inactive) | 22.8 µM (inactive) | 22.8 µM (inactive) | 0.0382 µM (active) | 44.5 µM (inactive) | 21.7 µM (inactive) | 16.7 µM (inactive) | 22.7 µM (inactive) | 27.7 µM (inactive) | 21.5 µM (inactive) | 24 µM (inactive)
13 | CO/S(=N/S(=O)(=O)c1ccccc1)c1ccccc1[N+](=O)[O-] (configuration not stated) | > 100 µM (inactive) | > 100 µM (inactive) | > 100 µM (inactive) |  | > 100 µM (inactive) |  | > 100 µM (inactive) | > 100 µM (inactive) | > 100 µM (inactive) | > 100 µM (inactive) | > 100 µM (inactive) | > 100 µM (inactive) | > 100 µM (inactive) | > 100 µM (inactive) | > 100 µM (inactive) |  | > 100 µM (inactive)
14 | O=C(c1ccc([N+](=O)[O-])cc1[N+](=O)[O-])N(/N=C/C=C/c1ccccc1)c1nnc(-c2ccccc2)c(-c2ccccc2)n1 | 35.7 µM (inactive) | 24.5 µM (inactive) | 29.4 µM (inactive) |  | 27 µM (inactive) | 20.5 µM (inactive) | 28.8 µM (inactive) | 20.6 µM (inactive) | 30.5 µM (inactive) | 23.6 µM (inactive) | 25.4 µM (inactive) | 40.3 µM (inactive) | 30.6 µM (inactive) | 34 µM (inactive) | 20.8 µM (inactive) | 27.2 µM (inactive) | 42.1 µM (inactive)
15 | O=c1[nH]c(=O)n(C2CC(O)C(CO)O2)cc1COCC(F)(F)F (configuration not stated) | > 100 µM (inactive) | 86.5 µM (inactive) | > 100 µM (inactive) |  | > 100 µM (inactive) | > 100 µM (inactive) | > 100 µM (inactive) | > 100 µM (inactive) | > 100 µM (inactive) | > 100 µM (inactive) | > 100 µM (inactive) | > 100 µM (inactive) | > 100 µM (inactive) | > 100 µM (inactive) | > 100 µM (inactive) | > 100 µM (inactive) | > 100 µM (inactive)
16 | O=C(Nc1cc(Cl)ccc1Cl)c1cc2ccccc2oc1=O | 61 µM (inactive) | 46.8 µM (inactive) | > 100 µM (inactive) | > 100 µM (inactive) | > 100 µM (inactive) |  | 15.7 µM (inactive) | > 100 µM (inactive) | 43.3 µM (inactive) | 94.8 µM (inactive) |  | 59.3 µM (inactive) | > 100 µM (inactive) | 53.2 µM (inactive) |  | > 100 µM (inactive) | > 100 µM (inactive)
17 | CCP(C)(=O)CC | > 100 µM (inactive) | > 100 µM (inactive) | > 100 µM (inactive) | > 100 µM (inactive) | > 100 µM (inactive) | > 100 µM (inactive) | > 100 µM (inactive) | > 100 µM (inactive) | > 100 µM (inactive) | > 100 µM (inactive) | > 100 µM (inactive) | > 100 µM (inactive) | > 100 µM (inactive) | > 100 µM (inactive) | > 100 µM (inactive) | > 100 µM (inactive) | > 100 µM (inactive)
